Experiment: xn = mol fraction of the nth substance listed
Settings: 101 kPa, Liquid

BrCCBr [1,2-dibromoethane] + CCCCCCC
Settings | mass density [kg/m3] | speed of sound [m/s]
292.6 K, x1 = 0.6005 | – | 996.77
292.62 K, x1 = 0.2 | – | 1079.5
292.64 K, x1 = 0.1024 | – | 1112.1
292.64 K, x1 = 0.2986 | – | 1050.8
292.66 K, x1 = 0.6997 | – | 989.87
292.68 K, x1 = 0.4002 | – | 1027.2
292.68 K, x1 = 0.8004 | – | 989.25
292.7 K, x1 = 0.4996 | – | 1009.4
292.7 K, x1 = 0.9061 | – | 995.84
292.84 K, x1 = 1 | – | 1007.5
293.15 K, x1 = 0.1018 | 776.01 | –
293.15 K, x1 = 0.2052 | 878.46 | –
293.15 K, x1 = 0.2931 | 973.9 | –
293.15 K, x1 = 0.3754 | 1070.54 | –
293.15 K, x1 = 0.3919 | 1091.09 | –
293.15 K, x1 = 0.5009 | 1234.71 | –
293.15 K, x1 = 0.5993 | 1379.31 | –
293.15 K, x1 = 0.6916 | 1530.51 | –
293.15 K, x1 = 0.7886 | 1707.97 | –
293.15 K, x1 = 0.8919 | 1922 | –
293.15 K, x1 = 1 | 2178.77 | –
298.15 K, x1 = 0.1018 | 771.16 | –
298.15 K, x1 = 0.2052 | 872.98 | –
298.15 K, x1 = 0.2931 | 968 | –
298.15 K, x1 = 0.3754 | 1064.3 | –
298.15 K, x1 = 0.3919 | 1084.74 | –
298.15 K, x1 = 0.5009 | 1227.73 | –
298.15 K, x1 = 0.5993 | 1372.04 | –
298.15 K, x1 = 0.6916 | 1522.49 | –
298.15 K, x1 = 0.7886 | 1699.34 | –
298.15 K, x1 = 0.8919 | 1912.55 | –
298.15 K, x1 = 1 | 2168.41 | –
298.56 K, x1 = 0.1024 | – | 1088
298.56 K, x1 = 0.9061 | – | 980
298.58 K, x1 = 0.2 | – | 1056.5
298.59 K, x1 = 0.4996 | – | 990.17
298.59 K, x1 = 0.6005 | – | 978.03
298.6 K, x1 = 0.4002 | – | 1006.7
298.6 K, x1 = 0.6997 | – | 972.29
298.68 K, x1 = 0.8004 | – | 972.17
298.69 K, x1 = 0.2986 | – | 1028.6
299.17 K, x1 = 1 | – | 991.14
303.15 K, x1 = 0.1018 | 766.4 | –
303.15 K, x1 = 0.2052 | 867.72 | –
303.15 K, x1 = 0.2931 | 962.23 | –
303.15 K, x1 = 0.3754 | 1058 | –
303.15 K, x1 = 0.3919 | 1078.36 | –
303.15 K, x1 = 0.5009 | 1220.93 | –
303.15 K, x1 = 0.5993 | 1364.69 | –
303.15 K, x1 = 0.6916 | 1514.35 | –
303.15 K, x1 = 0.7886 | 1690.56 | –
303.15 K, x1 = 0.8919 | 1903.13 | –
303.15 K, x1 = 1 | 2157.94 | –
303.37 K, x1 = 1 | – | 980.18
303.54 K, x1 = 0.4002 | – | 989.74
303.57 K, x1 = 0.9061 | – | 966.53
303.59 K, x1 = 0.1024 | – | 1067.7
303.61 K, x1 = 0.2 | – | 1037.2
303.61 K, x1 = 0.6997 | – | 957.6
303.62 K, x1 = 0.6005 | – | 962.51
303.65 K, x1 = 0.2986 | – | 1010.6
303.66 K, x1 = 0.4996 | – | 973.72
303.78 K, x1 = 0.8004 | – | 957.87
308.15 K, x1 = 0.1018 | 761.38 | –
308.15 K, x1 = 0.2052 | 862.14 | –
308.15 K, x1 = 0.2931 | 956.31 | –
308.15 K, x1 = 0.3754 | 1051.8 | –
308.15 K, x1 = 0.3919 | 1071.93 | –
308.15 K, x1 = 0.5009 | 1213.97 | –
308.15 K, x1 = 0.5993 | 1357.19 | –
308.15 K, x1 = 0.6916 | 1506.3 | –
308.15 K, x1 = 0.7886 | 1681.76 | –
308.15 K, x1 = 0.8919 | 1893.55 | –
308.15 K, x1 = 1 | 2147.47 | –
308.44 K, x1 = 0.9061 | – | 953.47
308.57 K, x1 = 0.6997 | – | 943.03
308.58 K, x1 = 0.4002 | – | 972.63
308.59 K, x1 = 0.6005 | – | 947.22
308.59 K, x1 = 0.8004 | – | 944.46
308.62 K, x1 = 0.1024 | – | 1047.4
308.62 K, x1 = 0.2986 | – | 992.63
308.65 K, x1 = 0.2 | – | 1018
308.75 K, x1 = 1 | – | 966.56
309.57 K, x1 = 0.4996 | – | 954.55
313.15 K, x1 = 0.1018 | 756.39 | –
313.15 K, x1 = 0.2052 | 856.68 | –
313.15 K, x1 = 0.2931 | 950.37 | –
313.15 K, x1 = 0.3754 | 1045.35 | –
313.15 K, x1 = 0.3919 | 1065.57 | –
313.15 K, x1 = 0.5009 | 1207.14 | –
313.15 K, x1 = 0.5993 | 1349.51 | –
313.15 K, x1 = 0.6916 | 1498.2 | –
313.15 K, x1 = 0.7886 | 1673.14 | –
313.15 K, x1 = 0.8919 | 1884.12 | –
313.15 K, x1 = 1 | 2136.96 | –
314.45 K, x1 = 1 | – | 952
314.52 K, x1 = 0.9061 | – | 937.35
314.55 K, x1 = 0.6997 | – | 925.53
314.56 K, x1 = 0.2 | – | 995.72
314.58 K, x1 = 0.4002 | – | 952.25
314.58 K, x1 = 0.8004 | – | 927.74
314.59 K, x1 = 0.1024 | – | 1023.6
314.59 K, x1 = 0.4996 | – | 938.54
314.59 K, x1 = 0.6005 | – | 928.96
314.61 K, x1 = 0.2986 | – | 971.18

— the NIST ThermoML archive (doi:10.1021/je0603325)
